Assay results reported in ChEMBL document CHEMBL1201862, “PubChem BioAssay data set” (2004).
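In this assay, cells in 96-well plates receive the compound at five concentrations for 48 hours. Endpoints are linearly interpolated between the surrounding concentrations. At the GI50, growth is halved.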 Active and inactive are the calls of the source. Rule as the data show it: active = GI50 up to about 1.1 µM and inactive = higher.

What was measured:
Experiment in all cases: DTP human tumour cell line panel, 48 h
786-0 = test system: 786-0
A498 = test system: A498
A549 = test system: A549
ACHN = test system: ACHN
CAKI-1 = test system: CAKI-1
CCRF-CEM = test system: CCRF-CEM
COLO 205 = test system: COLO 205
DLD-1 = test system: DLD-1
DMS-273 = test system: DMS-273
EKVX = test system: EKVX
HCC 2998 = test system: HCC 2998
HCT-116 = test system: HCT-116
HCT-15 = test system: HCT-15
HL-60 = test system: HL-60
HOP-18 = test system: HOP-18
HOP-62 = test system: HOP-62
HOP-92 = test system: HOP-92
HT-29 = test system: HT-29
IGROV-1 = test system: IGROV-1
K562 = test system: K562
KM-20L2 = test system: KM-20L2
KM12 = test system: KM12
LOX IMVI = test system: LOX IMVI
LXFL 529 = test system: LXFL 529
M14 = test system: M14
M19-MEL = test system: M19-MEL
MOLT-4 = test system: MOLT-4
Malme-3M = test system: Malme-3M
NCI-H226 = test system: NCI-H226
NCI-H23 = test system: NCI-H23
NCI-H460 = test system: NCI-H460
NCI-H522 = test system: NCI-H522
OVCAR-3 = test system: OVCAR-3
OVCAR-4 = test system: OVCAR-4
OVCAR-5 = test system: OVCAR-5
OVCAR-8 = test system: OVCAR-8
RXF 393 = test system: RXF 393
RXF 631 = test system: RXF 631
SF-268 = test system: SF-268
SF-295 = test system: SF-295
SF-539 = test system: SF-539
SK-MEL-28 = test system: SK-MEL-28
SK-MEL-2 = test system: SK-MEL-2
SK-MEL-5 = test system: SK-MEL-5
SK-OV-3 = test system: SK-OV-3
SN12C = test system: SN12C
SNB-19 = test system: SNB-19
SNB-75 = test system: SNB-75
SNB-78 = test system: SNB-78
SR = test system: SR
SW-620 = test system: SW-620
TK-10 = test system: TK-10
U-251 = test system: U-251
UACC-257 = test system: UACC-257
UACC-62 = test system: UACC-62
UO-31 = test system: UO-31
DMS-114 = test system: DMS-114
RPMI-8226 = test system: RPMI-8226
XF498 = test system: XF498

For `Cc1ccc(N2C(=O)C(=CN)C(=O)N(c3ccc(C)cc3)C2=O)cc1`, the GI50 (786-0) was > 100 µM (inactive), the GI50 (A498) was 84.9 µM (inactive) and the GI50 (A549) was > 100 µM (inactive). The GI50 (ACHN) was 37.9 µM (inactive), the GI50 (CAKI-1) was 31.8 µM (inactive) and the GI50 (CCRF-CEM) was 89.9 µM (inactive). The GI50 (COLO 205) was > 100 µM (inactive), the GI50 (DLD-1) was 46.8 µM (inactive) and the GI50 (DMS-273) was > 100 µM (inactive). For the same compound, the GI50 (EKVX) was > 100 µM (inactive), the GI50 (HCC 2998) was 10 µM (inactive) and the GI50 (HCT-116) was > 100 µM (inactive). The GI50 (HCT-15) was 62.1 µM, the GI50 (HL-60) was > 100 µM (inactive) and the GI50 (HOP-18) was > 100 µM (inactive). For the same compound, the GI50 (HOP-62) was 44.2 µM (inactive), the GI50 (HOP-92) was 31.1 µM (inactive) and the GI50 (HT-29) was > 100 µM (inactive). For the same compound, the GI50 (IGROV-1) was 71.9 µM (inactive), the GI50 (K562) was > 100 µM (inactive) and the GI50 (KM-20L2) was > 100 µM (inactive). The GI50 (KM12) was > 100 µM (inactive), the GI50 (LOX IMVI) was > 100 µM (inactive) and the GI50 (LXFL 529) was > 100 µM (inactive). For the same compound, the GI50 (M14) was > 100 µM (inactive), the GI50 (M19-MEL) was > 100 µM (inactive) and the GI50 (MOLT-4) was > 100 µM (inactive). For the same compound, the GI50 (Malme-3M) was 47.6 µM (inactive), the GI50 (NCI-H226) was > 100 µM (inactive) and the GI50 (NCI-H23) was > 100 µM (inactive). For the same compound, the GI50 (NCI-H460) was > 100 µM (inactive), the GI50 (NCI-H522) was > 100 µM (inactive) and the GI50 (OVCAR-3) was 65.9 µM (inactive). The GI50 (OVCAR-4) was > 100 µM (inactive), the GI50 (OVCAR-5) was > 100 µM (inactive) and the GI50 (OVCAR-8) was > 100 µM (inactive). The GI50 (RXF 393) was 91.6 µM (inactive), the GI50 (RXF 631) was > 100 µM (inactive) and the GI50 (SF-268) was > 100 µM (inactive). For the same compound, the GI50 (SF-295) was > 100 µM (inactive), the GI50 (SF-539) was > 100 µM (inactive) and the GI50 (SK-MEL-28) was > 100 µM (inactive). The GI50 (SK-MEL-2) was 66.8 µM (inactive), the GI50 (SK-MEL-5) was > 100 µM (inactive) and the GI50 (SK-OV-3) was 19.2 µM (inactive). The GI50 (SN12C) was 51.6 µM (inactive), the GI50 (SNB-19) was > 100 µM (inactive) and the GI50 (SNB-75) was 13.3 µM (inactive). For the same compound, the GI50 (SNB-78) was > 100 µM (inactive), the GI50 (SR) was > 100 µM (inactive) and the GI50 (SW-620) was > 100 µM (inactive). The GI50 (TK-10) was 48.4 µM (inactive), the GI50 (U-251) was 10 µM (inactive) and the GI50 (UACC-257) was > 100 µM (inactive). The GI50 (UACC-62) was 68.9 µM (inactive) and the GI50 (UO-31) was 53.5 µM (inactive).
`O=C(/C=C/c1c(O)ccc2ccccc12)c1cccc2ccccc12` was tested, and the GI50 (786-0) was > 69.7 µM (inactive), the GI50 (A498) was > 100 µM (inactive) and the GI50 (A549) was > 100 µM (inactive). The GI50 (ACHN) was > 100 µM (inactive), the GI50 (CAKI-1) was > 100 µM (inactive) and the GI50 (CCRF-CEM) was 23.7 µM (inactive). For the same compound, the GI50 (COLO 205) was > 100 µM (inactive), the GI50 (DLD-1) was > 79.4 µM (inactive) and the GI50 (DMS-114) was > 59.7 µM (inactive). The GI50 (DMS-273) was > 100 µM (inactive), the GI50 (EKVX) was > 100 µM (inactive) and the GI50 (HCC 2998) was > 100 µM (inactive). For the same compound, the GI50 (HCT-116) was 57.7 µM (inactive), the GI50 (HCT-15) was over 58.7 µM and the GI50 (HL-60) was > 43.8 µM (inactive). For the same compound, the GI50 (HOP-18) was 58.6 µM (inactive), the GI50 (HOP-62) was > 100 µM (inactive) and the GI50 (HOP-92) was > 100 µM (inactive). The GI50 (HT-29) was > 72.4 µM (inactive), the GI50 (IGROV-1) was > 100 µM (inactive) and the GI50 (K562) was 51.5 µM (inactive). For the same compound, the GI50 (KM-20L2) was > 100 µM (inactive), the GI50 (KM12) was > 100 µM (inactive) and the GI50 (LOX IMVI) was > 59 µM (inactive). The GI50 (LXFL 529) was > 83.6 µM (inactive), the GI50 (M14) was > 100 µM (inactive) and the GI50 (M19-MEL) was 26.1 µM (inactive). The GI50 (MOLT-4) was 51.5 µM (inactive), the GI50 (Malme-3M) was > 87.5 µM (inactive) and the GI50 (NCI-H226) was > 57.9 µM (inactive). For the same compound, the GI50 (NCI-H23) was > 100 µM (inactive), the GI50 (NCI-H460) was > 100 µM (inactive) and the GI50 (NCI-H522) was 27.5 µM (inactive). The GI50 (OVCAR-3) was > 100 µM (inactive), the GI50 (OVCAR-5) was > 100 µM (inactive) and the GI50 (OVCAR-8) was > 100 µM (inactive). The GI50 (RPMI-8226) was 42.1 µM (inactive), the GI50 (RXF 393) was > 100 µM (inactive) and the GI50 (SF-268) was > 100 µM (inactive). The GI50 (SF-295) was > 100 µM (inactive), the GI50 (SF-539) was > 100 µM (inactive) and the GI50 (SK-MEL-28) was > 100 µM (inactive). The GI50 (SK-MEL-2) was > 95.1 µM (inactive), the GI50 (SK-MEL-5) was > 100 µM (inactive) and the GI50 (SK-OV-3) was > 100 µM (inactive). For the same compound, the GI50 (SN12C) was > 100 µM (inactive), the GI50 (SNB-19) was > 89.5 µM (inactive) and the GI50 (SNB-75) was > 52.4 µM (inactive). The GI50 (SNB-78) was > 100 µM (inactive), the GI50 (SR) was 36 µM (inactive) and the GI50 (SW-620) was > 37.1 µM (inactive). The GI50 (TK-10) was > 100 µM (inactive), the GI50 (U-251) was > 71.9 µM (inactive) and the GI50 (UACC-257) was > 100 µM (inactive). For the same compound, the GI50 (UACC-62) was > 100 µM (inactive), the GI50 (UO-31) was 34 µM (inactive) and the GI50 (XF498) was > 100 µM (inactive).
In the case of `OCC12C=CC(C1)c1ccccc12` (stereo not drawn), the GI50 (786-0) is reported as > 100 µM (inactive), the GI50 (A498) is reported as > 100 µM (inactive) and the GI50 (A549) is reported as > 100 µM (inactive). For the same compound, the GI50 (ACHN) was > 100 µM (inactive), the GI50 (CAKI-1) was > 100 µM (inactive) and the GI50 (CCRF-CEM) was > 100 µM (inactive). The GI50 (COLO 205) was > 100 µM (inactive), the GI50 (DLD-1) was > 100 µM (inactive) and the GI50 (DMS-114) was > 100 µM (inactive). The GI50 (DMS-273) was > 100 µM (inactive), the GI50 (HCC 2998) was > 100 µM (inactive) and the GI50 (HCT-116) was > 100 µM (inactive). The GI50 (HCT-15) was over 100 µM, the GI50 (HL-60) was > 100 µM (inactive) and the GI50 (HOP-18) was > 100 µM (inactive). For the same compound, the GI50 (HOP-62) was > 100 µM (inactive), the GI50 (HOP-92) was > 100 µM (inactive) and the GI50 (HT-29) was > 100 µM (inactive). The GI50 (IGROV-1) was > 100 µM (inactive), the GI50 (K562) was > 100 µM (inactive) and the GI50 (KM-20L2) was > 100 µM (inactive). The GI50 (LOX IMVI) was > 100 µM (inactive), the GI50 (LXFL 529) was > 100 µM (inactive) and the GI50 (M14) was > 100 µM (inactive). The GI50 (M19-MEL) was > 100 µM (inactive), the GI50 (MOLT-4) was > 100 µM (inactive) and the GI50 (Malme-3M) was > 100 µM (inactive). For the same compound, the GI50 (NCI-H226) was > 100 µM (inactive), the GI50 (NCI-H23) was > 100 µM (inactive) and the GI50 (NCI-H460) was > 100 µM (inactive). For the same compound, the GI50 (OVCAR-3) was > 100 µM (inactive), the GI50 (OVCAR-4) was > 100 µM (inactive) and the GI50 (OVCAR-5) was > 100 µM (inactive). For the same compound, the GI50 (OVCAR-8) was > 100 µM (inactive), the GI50 (RPMI-8226) was > 100 µM (inactive) and the GI50 (RXF 631) was > 100 µM (inactive). The GI50 (SF-268) was > 100 µM (inactive), the GI50 (SF-295) was > 100 µM (inactive) and the GI50 (SK-MEL-28) was > 100 µM (inactive). The GI50 (SK-MEL-5) was > 100 µM (inactive), the GI50 (SK-OV-3) was > 100 µM (inactive) and the GI50 (SN12C) was > 100 µM (inactive). For the same compound, the GI50 (SNB-19) was > 100 µM (inactive), the GI50 (SR) was > 100 µM (inactive) and the GI50 (SW-620) was > 100 µM (inactive). For the same compound, the GI50 (TK-10) was > 100 µM (inactive), the GI50 (U-251) was > 100 µM (inactive) and the GI50 (UACC-257) was > 100 µM (inactive). The GI50 (UACC-62) was > 100 µM (inactive) and the GI50 (UO-31) was > 100 µM (inactive).
